# Legend:
# [1] = tested on: patients with non-cirrhotic, non-alcoholic steatohepatitis; experiment: Randomized placebo-controlled clinical trial in non-alcoholic steatohepatitis; assay type: in vivo, humans; details: at 24 weeks; 25 mg daily orally vs placebo; 95% CI −45 to −3
# Method: A multicenter, double-blind, placebo-controlled, parallel group, randomized clinical trial was conducted in patients with non-cirrhotic, non-alcoholic steatohepatitis to assess treatment with obeticholic acid given orally (25 mg daily) or placebo for 72 weeks. Patients were randomly assigned 1:1 using a computer-generated, centrally administered procedure, stratified by clinical center and diabetes status. The primary outcome measure was improvement in centrally scored liver histology defined as a decrease in non-alcoholic fatty liver disease activity score by at least 2 points without worsening of fibrosis from baseline to the end of treatment. Change in alanine aminotransferase at 24 weeks was measured: relative change in alanine aminotransferase −24%, 95% CI −45 to −3.
# Patients were enrolled in the study according to the following inclusion criteria: 18 years or older at the time of screening, histological evidence of definite or borderline non-alcoholic steatohepatitis based upon a liver biopsy obtained 90 days or less before randomization, and a histological non-alcoholic fatty liver disease (NAFLD) activity score of 4 or more with a score of 1 or more in each component of the score (steatosis scored 0-3, ballooning 0-2, and lobular inflammation 0-3). Grading and staging of biopsies for the purposes of enrollment were carried out at the site of enrollment. […]
# [2] = tested on: fibrosis induced by common bile duct ligation in mice; experiment: Bile duct ligation (BDL) model, Sirius-red staining of liver sections; assay type: in vivo, C57BL/6 mice; details: mean ± SD, OCA 5 mg/kg and/or atorvastatin 10 mg/kg orally once daily day 0 to day 6
# Method: This experiment was performed to evaluate the effects of OCA and atorvastatin alone, and in combination, on fibrosis induced by common bile duct ligation in mice.
# Male C57BL/6 mice (6 weeks of age) were obtained from Japan SLC. The animals were maintained in a specific pathogen free facility under controlled conditions of temperature (23±2° C.), humidity (45±10%), lighting (12-hour artificial light and dark cycles; light from 8:00 to 20:00), and air exchange (air exchange rate: more than 40 times/hour). A high pressure (20±4 Pa) was maintained in the experimental room to prevent contamination of the facility. The animals were housed in KN-600 (Natsume Seisakusho, Japan) with a maximum of 6 mice per cage. […]
# Viability, clinical signs and behavior were monitored daily. Body weight was recorded daily during the treatment period. Food consumption was measured twice weekly per cage during the treatment period. […]
# To visualize collagen deposition, Bouin's-fixed left lateral liver sections were stained using picro-Sirius red solution (Waldeck, Germany). For quantitative analysis of the fibrosis area, bright field images of Sirius red-stained sections were captured around the central vein using a digital camera (DFC295; Leica, Germany) at 100-fold magnification, and the positive areas in 5 fields/section were measured using ImageJ software (National Institute of Health, USA). […]
smiles,measurement,setting,value
"CC[C@H]1[C@@H](O)[C@@H]2[C@H](CC[C@]3(C)[C@@H]([C@H](C)CCC(=O)O)CC[C@@H]23)[C@@]2(C)CC[C@@H](O)C[C@@H]12 [OCA, 3α,7α-dihydroxy-6α-ethyl-5β-cholan-24-oic acid]",relative change in alanine aminotransferase,[1],−24%
same,Sirius red-positive area (%),[2],2.06 ± 0.37%

# — patent US12337003B2, “Pharmaceutical compositions for combination therapy” (Intercept Pharmaceuticals, Inc., priority 2015, dated 2025)
